Measurements reported in patent US8299125B2, “Water-soluble triterpenephenol compounds having antitumor activity and the preparation thereof” (Shanghai Huatuo Medical Science Co., Ltd., priority 2007, dated 2012).

What was measured:
[1] = Stability assay of compound A during the preparation of the injection (HPLC peak area); assay type: physicochemical; conditions: for peak area: 210 nm
Protocol: Experimental conditions: the chromatography column was DIKMA C18 column (5μ, 250×4.6 mm); the detector was Agilent 1100 DAD detector; the detection wavelength was 210 nm; the liquid phase was acetonitrile-0.02M KH2PO4 (which contains 1‰ of tetrabutylammonium hydroxide, and the pH was adjusted to 7.35 with triethylamine) (35:65); the flow speed was 1 ml/min; and sample amount was 20 μl.
Sample: the solutions in each step of the preparation of the injection of compound A in example 6
Experimental data: the peak area of the solution before filtering with micro-pore filter film was 1084.4, the peak area after filtering was 1078.2, and the peak area after the moist heat sterilization was 1072.9.

[2] = system: human prostate cancer cell PC-3 transplanted into nude mice; experiment: Therapeutic activity against human prostate cancer cell PC-3 transplanted into nude mice; assay type: in vivo, BALB/Ca nude mice; conditions: for TV d24 / T/C (%) / RTV / TV d0: dl/3.5 w, i.p; for TV d24: 24th day; for T/C (%): relative tumor proliferation rate; for RTV: relative tumor volume Vt/V0; for TV d0: tumor volume at start of administration
Protocol: The therapeutic activity experiment of compound A against human prostate cancer cell PC-3 transplanted into nude mice was conducted by SHANGHAI INSTITUTE OF MATERIA MEDICA, CHINESE ACADEMY OF SCIENCES, under assignment by SHANGHAI HUATUO MEDICAL SCIENCE CO., LTD.
Tested Compound: Compound A.
Positive control medicine: mitomycin (MMC), produced by Kyowa Hakko kogyo Co Ltd. (batch no: 468AEF, 2 mg/bottle), was diluted with physiological saline when used.
Animal and transplanted tumor: BALB/Ca nude mice, female, 45˜50 days old, weight 20±1 g. The transplanted tumor of human prostate cancer cell PC-3 in nude mice was established by inoculating the nude mice with PC-3 cell line subcutaneously.
TV (mm^3) is the tumor volume, and the calculation equation is: TV=½×a×b^2, wherein a and b represent length and width respectively. d0 is the tumor volume measured as medicine is administered in divided cages, and d24 is the tumor volume on the 24th day of the experiment. RTV is the relative tumor volume, and the calculation equation is RTV=Vt/V0, wherein V0 is the tumor volume measured as medicine is administered in divided cages (i.e. d0), Vt is the tumor volume measured every time. The evaluation index of the antitumor activity is the relative tumor proliferation rate T/C (%) and the calculation equation is as follows: T/C(%)=(TRTV/CRTV)×100
TRTV: RTV of the therapeutic group; CRTV: RTV of the negative control group.
Evaluation standard of therapeutic effect: T/C (%)>60% is ineffective, T/C (%)≦60 and with a statistic result of p<0.05 represents effective.

[3] = Stability assay of compound A at meta-acidic or meta-alkalescence condition (HPLC peak area); assay type: physicochemical; conditions: 2 hours
Protocol: Experimental conditions: the chromatography column was DIKMA C18 column (5μ, 250×4.6 mm); The detector was Waters 3487 detector; the detection wavelength was 210 nm; the liquid phase was acetonitrile-0.02M KH2PO4 (which contains 1‰ tetrabutylammonium hydroxide, and the pH was adjusted to 7.35 with triethylamine) (35:65); and the flow speed was 1 ml/min.
Experimental method: the compound A was formulated into a solution of about 5 mg/ml with distilled water. 0.1 ml of the solution was added into the following solutions respectively: a) 1 ml of HCl diluted solution with a pH of 2; b) 1 ml of distilled water; c) 1 ml of sodium carbonate diluted solution with a pH of 10. After left standing at room temperature for 2 hours, 0.1 ml of each the above three kinds of solution were added into 1 ml of liquid phase solution, respectively, and 20 μl was sampled and injected into the chromatograph. The peak areas were then determined and calculated.

Compound	stability during the injection preparation [1]	peak area ([1]; after filtering)	peak area ([1]; after the moist heat sterilization (116° C., 30 min))	peak area ([1]; solution before filtering with micro-pore filter film)	TV d24 ([2]; 3 mg/kg) [mm^3]	T/C (%) ([2]; 3 mg/kg)	RTV ([2]; 3 mg/kg)	TV d0 ([2]; 3 mg/kg) [mm^3]	inhibition of the growth of human prostate cancer cell PC-3 transplanted into nude mice ([2]; mouse, in vivo)	Percentage (based on the peak area in distilled water taken as 100%) ([3]; Distilled water (reference), room temperature) [%]	peak area ([3]; Distilled water, room temperature)	stability at both meta-acidic condition and meta-alkalescence condition ([3]; pH 2 and pH 10, room temperature)	peak area ([3]; pH = 2 (HCl diluted solution), room temperature)	Percentage (based on the peak area in distilled water taken as 100%) ([3]; pH = 2, room temperature) [%]	peak area ([3]; pH = 10 (sodium carbonate diluted solution), room temperature)	Percentage (based on the peak area in distilled water taken as 100%) ([3]; pH = 10, room temperature) [%]	TV d24 ([2]; 5 mg/kg) [mm^3]	T/C (%) ([2]; 5 mg/kg)	RTV ([2]; 5 mg/kg)	TV d0 ([2]; 5 mg/kg) [mm^3]
Cc1c(O)c(O)cc2c1C(S(=O)(=O)[O-])C=C1[C@@]2(C)CC[C@@]2(C)[C@@H]3C[C@](C)(C(=O)O)CC[C@]3(C)CC[C@]12C.[Na+] (some centres unmarked) [Compound A]	good	1078.2	1072.9	1084.4	501 ± 133	40.2	3.8 ± 1.1	135 ± 16	marked inhibition effects	100	1206926	good stability	1247385	103.4	1232216	102.1	–	–	–	–
CO[C@@]12[C@H](COC(N)=O)C3=C(C(=O)C(C)=C(N)C3=O)N1C[C@@H]1N[C@@H]12 [mitomycin, reference compound]	–	–	–	–	–	–	–	–	–	–	–	–	–	–	–	–	400 ± 224	33.7	3.1 ± 1.8	135 ± 42
